Reference: patent publication US9763969B2, “Treatment of inflammatory conditions with hyaluronan disaccharide” (CEDARS-SINAI MEDICAL CENTER, priority 2013, dated 2017)

Tests used:
[1] = test system: TLR4; experiment: TLR4 reporter construct in HEK cells; format: cell-based; conditions: TLR4 agonist LPS, FIG. 12A
Procedure: (§1) FIG. 12 depicts, in accordance with an embodiment of the invention, HA disaccharide reduces TLR 2 and 4 (A), but not TLR9 (B) signaling. HEK cells were transfected with TLR2, 4, and 9 reporter constructs. The cells were incubated with TLR2 agonist (Pam3), TL4 agonist (LPS), or TLR9 agonist (Cpg) with or without hyaluronan disaccharide. Activation of the reporter genes at 4 h was measured.

[2] = test system: TLR2; experiment: TLR2 reporter construct in HEK cells; format: cell-based; conditions: TLR2 agonist Pam3, FIG. 12A
Procedure: as §1

[3] = test system: macrophage; experiment: macrophage stimulation assay, Pam3csk4 induced TNF-α secretion; format: cell-based; conditions: FIG. 3C; for Pam3csk4 induced TNF-α secretion: TLR2 agonist Pam3csk4
From the text: (§2) FIG. 3 depicts, in accordance with an embodiment of the invention, in vitro anti-inflammatory properties of GBS hyaluronidase. A. Bio-Gel P-4 chromatography of hyaluronidase digestion mixture following digestion with GBS, bovine testis, or Streptomyces hyaluronlyticus hyaluronidase. B. Digestion of HA by GBS hyaluronidase leads to suppressed inflammation. C. HA disaccharide inhibits Pam3csk4 induced TNFα secretion.
(§3) Since bovine hyaluronidase degrades HA to 4-16mers, the inventors asked whether subsequent degradation with GBS hyaluronidase would abrogate induction of TNF-α. Indeed that is what the inventors found (FIG. 3B right). Because the major product of GBS hyaluronidase enzymatic activity is diHA (disaccharide), the inventors also evaluated the direct effect of DiHA on TNF-α secretion induced by a TLR2 agonist Pam3csk4.

[4] = test system: bone marrow derived macrophages; experiment: macrophage stimulation assay, LPS or undigested hyaluronan with hyaluronan disaccharide; format: cell-based, mice
Procedure: FIG. 6 depicts, in accordance with an embodiment of the invention, hyaluronan disaccharide has an anti-inflammatory property. Hyaluronan disaccharide was co-incubated with LPS or undigested hyaluronan in a macrophage stimulation assay. Hyaluronan disaccharide reduces TNF-α induction by LPS or undigested hyaluronan.
FIG. 11 depicts, in accordance with an embodiment of the invention, hyaluronan dimers are not inert. Bone marrow derived macrophages from WT mice were incubated with LPS and various concentrations of hyaluronan disaccharide. TNF-α at 18 h was measured.

[5] = test system: TLR9; experiment: TLR9 reporter construct in HEK cells; format: cell-based; conditions: TLR9 agonist Cpg, FIG. 12B
Procedure: as §1

[6] = test system: acute lung injury; experiment: LPS acute lung injury, intratracheal; format: in vivo; conditions: mice, 5 micrograms LPS intratracheally, 100 micrograms disaccharide, 24 h; FIG. 14
Procedure: FIG. 14 depicts, in accordance with an embodiment of the invention, HA disaccharide decreases acute lung injury. Mice were injected intratracheally with 5 micrograms of LPS, along with PBS, Hyaluronan disaccharide (100 micrograms) or GBS enzyme (1 mg). At 24 h, the mice were sacrificed and the lungs were analyzed for histology (F&G) and cytokines and chemokines (A-E).

[7] = test system: bone marrow derived macrophages; experiment: hyaluronan predigested with GBS hyaluronidase, then stimulation of macrophages; format: cell-based
From the text: FIG. 7 depicts, in accordance with an embodiment of the invention, Group B streptococcal hyaluronidase has an anti-inflammatory property. Hyaluronan was predigested with purified GBS hyaluronidase or PBS, and then transferred to a culture of bone marrow derived macrophages.
(§4) FIG. 8 depicts, in accordance with an embodiment of the invention, GBS hyaluronidase reduces hyaluronan to dimers and dampens inflammation. HPLC profile of hyaluronan fragments generated by bovine hyaluronidase versus Group B streptococcus (GBS) hyaluronidase (A). Stimulatory hyaluronan fragments (4-16mers) were digested with GBS hyaluronidase for 4 or 15 hours (B).
as §3

[8] = hyaluronidase digestion of HA, fragment sizes (Bio-Gel P-4 chromatography / HPLC); format: biochemical; conditions: FIG. 3A
From the text: as §2, §4, §3

hyaluronan disaccharide
TLR4 signaling (reporter gene activation at 4 h) [1]: reduces
TLR2 signaling (reporter gene activation at 4 h) [2]: reduces
immunostimulatory capacity [3]: no immunostimulatory capacity
Pam3csk4 induced TNF-α secretion ([3]; listed as HA disaccharide): inhibits
Pam3csk4 induced TNF-α secretion ([3]; listed as diHA): partially inhibited
TNF-α at 18 h with LPS and various concentrations of hyaluronan disaccharide ([4]; bone marrow derived macrophages from WT mice, FIG. 11): not inert
TNF-α induction by LPS ([4]; co-incubated with LPS, FIG. 6): reduces
TNF-α induction by undigested hyaluronan ([4]; co-incubated with undigested hyaluronan, FIG. 6): reduces
TLR9 signaling (reporter gene activation at 4 h) [5]: not
acute lung injury [6]: decreases

B1: GBS hyaluronidase: purified hyaluronidase from Group B Streptococcus (S. agalactiae) that degrades HA to a disaccharide (protein, UniProt Q53591 41-984, looked up)
Hyaluronate lyase: WIDKENTADKSPIIQRTEQGQVSLSSDKGFRGAVTQKVNIDPTKKYEVKFDIETSNKAGQAFLRIMEKKDNNTRLWLSEMTSGTTNKHTLTKIYNPKLNVSEVTLELYYEKGTGSATFDNISMKAKGPKDSEHPQPVTTQIEESVNTALNKNYVFNKADYQYTLTNPSLGKIVGGILYPNATGSTTVKISDKSGKIIKEVPLSVTASTEDKFTKLLDKWNDVTIGNHVYDTNDSNMQKINQKLDETNAKNIKTIKLDSNHTFLWKDLDNLNNSAQLTATYRRLEDLAKQITNPHSTIYKNEKAIRTVKESLAWLHQNFYNVNKDIEGSANWWDFEIGVPRSITATLALMNNYFTDAEIKTYTDPIEHFVPDAGYFRKTLDNPFKALGGNLVDMGRVKIIEGLLRKDNTIIEKTSHSLKNLFTTATKAEGFYADGSYIDHTNVAYTGAYGNVLIDGLTQLLPIIQETDYKISNQELDMVYKWINQSFLPLIVKGELMDMSRGRSISREAASSHAAAVEVLRGFLRLANMSNEERNLDLKSTIKTIITSNKFYNVFNNLKSYSDIANMNKMLNDSTVATKPLKSNLSTFNSMDRLAYYNAEKDFGFALSLHSKRTLNYEGMNDENTRDWYTGDGMFYLYNSDQSHYSNHFWPTVNPYKMAGTTEKDAKREDTTKEFMSKHSKDAKEKTGQVTGTSDFVGSVKLNDHFALAAMDFTNWDRTLTAQKGWVILNDKIVFLGSNIKNTNGIGNVSTTIDQRKDDSKTPYTTYVNGKTIDLKQASSQQFTDTKSVFLESKEPGRNIGYIFFKNSTIDIERKEQTGTWNSINRTSKNTSIVSNPFITISQKHDNKGDSYGYMMVPNIDRTSFDKLANSKEVELLENSSKQQVIYDKNSQTWAVIKHDNQESLINNQFKMNKAGLYLVQKVGNDYQNVYYQPQTMTKTDQLAI
TNF-α stimulation by hyaluronan ([7]; hyaluronan predigested with purified GBS hyaluronidase or PBS, FIG. 7): significantly reduces
cytokine production ([7]; stimulatory hyaluronan fragments (4-16mers) digested for 4 or 15 hours, FIG. 8B): reduces cytokine production
induction of TNF-α by HA degraded with bovine hyaluronidase ([7]; subsequent degradation with GBS hyaluronidase, FIG. 3B right): abrogate
HA degradation product (fragment size) [8]: a single product—a disaccharide
